For data set [1] the following is noted: 101.3 kPa, Liquid, Vibrating tube method.
Data set [2] is described as follows: mn = molality of the nth substance listed, in mol/kg. The following applies: 101.3 kPa, Liquid, Vibrating tube method, m2 = 0.

Numbers after ± are expanded uncertainties.

In the case of `O` [water], the mass density in data set [1] (278.15 K) turned out to be 999.99 ± 0.4 kg/m3; in data set [1] (283.15 K), 999.73 ± 0.41 kg/m3; in data set [1] (308.15 K), 994.06 ± 0.41 kg/m3; in data set [1] (328.15 K) it was 985.73 ± 0.4 kg/m3; in data set [1] (333.15 K), 983.24 ± 0.4 kg/m3; in data set [1] (338.15 K), 980.59 ± 0.4 kg/m3. Also, the mass density in data set [1] (343.15 K) is reported as 977.81 ± 0.4 kg/m3.

For the compound `O` [water] + O=C(O)CC(=O)O, the mass density in data set [2] (278.15 K) is 999.99 ± 0.4 kg/m3; in data set [2] (283.15 K) it was 999.73 ± 0.41 kg/m3; in data set [2] (308.15 K), 994.06 ± 0.41 kg/m3; in data set [2] (328.15 K) it was 985.73 ± 0.4 kg/m3; in data set [2] (333.15 K) it was 983.24 ± 0.4 kg/m3; in data set [2] (338.15 K) it was 980.59 ± 0.4 kg/m3. Besides, the mass density in data set [2] (343.15 K) was found to be 977.81 ± 0.4 kg/m3.

The values are drawn from the NIST ThermoML archive (doi:10.1016/j.jct.2016.06.023).
